Measurements: patent US7524964B2, “Tetrahydrothiopyrano pyrazole cannabinoid modulators” (Janssen Pharmaceutica NV, priority 2005, dated 2009)
Like-named read-outs stand apart in the source and are kept apart here.

Experiments:
human CB-2 receptor = target: T1, human CB-2 receptor (Homo sapiens, UniProt P34972); assay: Binding assay, cannabinoid CB2 receptor ([3H]-CP-55,940 displacement); details: read-out: CB2 binding percent inhibition; for inhibition at 1 µM: test concentration 1 μM (superscript b)
T1 construct: expressed in transfected cells; host or cells: SK-N-MC cells, pcDNA3 CB-2 (human), semi-purified membranes
T1 sequence (P34972 whole entry): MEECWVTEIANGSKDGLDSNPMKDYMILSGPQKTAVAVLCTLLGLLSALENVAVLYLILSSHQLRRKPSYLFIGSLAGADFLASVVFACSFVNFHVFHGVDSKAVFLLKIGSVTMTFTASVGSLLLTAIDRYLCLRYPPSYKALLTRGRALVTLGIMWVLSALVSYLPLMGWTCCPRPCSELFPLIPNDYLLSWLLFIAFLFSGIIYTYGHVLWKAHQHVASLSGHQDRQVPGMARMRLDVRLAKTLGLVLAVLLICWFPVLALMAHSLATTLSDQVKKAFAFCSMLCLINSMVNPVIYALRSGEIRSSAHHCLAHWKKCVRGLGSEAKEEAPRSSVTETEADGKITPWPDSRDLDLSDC
Method: (§1) Binding Assay for CB1 or CB2 Agonists or Inverse Agonists
(§2) The human CB-1 and CB-2 receptors were stably expressed in SK-N-MC cells transfected with pcDNA3 CB-1 (human) or pcDNA3 CB-2 (human). The cells were grown in T-180 cell culture flasks under standard cell culture conditions at 37° C. in a 5% CO2 atmosphere. The cells were harvested by trypsinization and homogenized in a homogenization buffer (10 mM Tris, 0.2 mM MgCl2, 5 mM KCl, with protease inhibitors aprotinin, leupeptin, pepstatin A and bacitracin) and centrifuged (2000 g). The supernatant was then centrifuged in 2M sucrose (31,300 g) to produce a semi-purified membrane pellet. The pellet was resuspended in homogenization and store at −80° C.
(§3) On the day of the assay, the pellet was thawed on ice and diluted in assay buffer (50 mM Tris-HCl, 5 mM MgCl2, 2.5 mM EDTA, 0.5 mg/mL fatty acid free bovine serum albumin, pH 7.5). The diluted membrane was added with buffer, test compound or standard and the radioligand [H]^3+-CP-55,940_(0.2 nM) to the wells of a 96-well polypropylene plate. Non-specific binding was measured in wells containing 10 uM WIN 55,212. The plate was covered and incubated for 90 minutes at 30° C. The contents were then aspirated onto a Packard Unifilter G/C filter bottom plate prewet with 0.5% polyethyleneimine. The wells of the polypropylene plate were rinsed and aspirated seven times with a 0.9% saline-0.5% Tween 20 solution. The Unifilter plate was dried, a scintillation cocktail was added to each well and the counts representing binding were quantitated in a TopCount scintillation counter.
(§4) The IC50 binding values for compounds tested were calculated by linear regression and were obtained from studies in which varying compound concentrations were used. Where an IC50 was not obtained, test results are provided as percent inhibition at a test concentration of ^a0.2 μM, ^b1 μM or ^c10 μM.

human CB1 receptor = human CB1 receptor (Homo sapiens, UniProt P21554); assay: Binding assay, cannabinoid CB1 receptor ([3H]-CP-55,940 displacement); parameters: expressed in transfected cells; host or cells: SK-N-MC cells, pcDNA3 CB-1 (human), semi-purified membranes; details: for inhibition at 0.2 µM: test concentration 0.2 μM (superscript a); for inhibition at 1 µM: test concentration 1 μM (superscript b)
human CB1 receptor, sequence (P21554 whole entry): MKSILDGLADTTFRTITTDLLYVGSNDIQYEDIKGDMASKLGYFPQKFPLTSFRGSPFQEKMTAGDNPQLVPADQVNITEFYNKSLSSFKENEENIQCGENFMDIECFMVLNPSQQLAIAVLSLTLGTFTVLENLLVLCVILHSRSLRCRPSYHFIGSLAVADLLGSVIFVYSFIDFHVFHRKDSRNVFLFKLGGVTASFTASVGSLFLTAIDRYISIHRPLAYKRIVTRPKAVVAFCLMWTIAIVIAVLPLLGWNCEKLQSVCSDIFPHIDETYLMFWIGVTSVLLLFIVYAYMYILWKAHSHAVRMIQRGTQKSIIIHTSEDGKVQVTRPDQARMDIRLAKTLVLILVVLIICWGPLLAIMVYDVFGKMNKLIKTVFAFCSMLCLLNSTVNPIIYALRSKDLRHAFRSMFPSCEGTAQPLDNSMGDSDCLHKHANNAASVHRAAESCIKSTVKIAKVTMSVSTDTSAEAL
Method: as §1, §2, §3, §4

[1] = test concentration 0.2 μM (superscript a)
[2] = read-out: CB1 binding percent inhibition

Structure (SMILES) | inhibition at 0.2 µM (human CB-2 receptor; [1]) | inhibition at 0.2 µM (human CB1 receptor; [2]) | IC50 (human CB1 receptor) | also measured
O=C(NNc1ccc(Cl)cc1Cl)c1nn(-c2ccc(Cl)cc2Cl)c2c1C[S+]([O-])C/C2=C\c1ccc(F)cc1 (stereo not drawn) [Cpd 77, (7Z)-1-(2,4-dichloro-phenyl)-7-(4-fluoro-benzylidene)-5-oxo-4,5,6,7-tetrahydro-1H-5λ^4-thiopyrano[4,3-c]pyrazole-3-carboxylic acid N′-(2,4-dichloro-phenyl)-hydrazide] | 9% | 55% |  | 
O=C(NN1CC2CCCC2C1)c1c2c(nn1-c1ccc(Cl)cc1Cl)/C(=C/c1ccc(F)cc1)CS(=O)(=O)C2 (stereo not drawn) [Cpd 87, (7Z)-2-(2,4-dichloro-phenyl)-7-(4-fluoro-benzylidene)-5,5-dioxo-4,5,6,7-tetrahydro-2H-5λ^6-thiopyrano[4,3-c]pyrazole-3-carboxylic acid (hexahydro-cyclopenta[c]pyrrol-2-yl)-amide] | 4% |  | 18 nM | 
C[C@H](NS(=O)(=O)/C=C/c1c2c(nn1Cc1ccccc1)CCS(=O)(=O)C2)c1ccccc1 [Cpd 10, (E)-2-(2-benzyl-5,5-dioxo-4,5,6,7-tetrahydro-2H-5λ^6-thiopyrano[4,3-c]pyrazol-3-yl)-ethenesulfonic acid [(1S)-1-phenyl-ethyl]-amide] |  |  |  | inhibition at 1 µM (human CB-2 receptor): 36%; inhibition at 1 µM (human CB1 receptor; [2]): 0%
O=C(NN1CCN(CCO)CC1)c1nn(-c2ccc(Cl)cc2Cl)c2c1CS(=O)(=O)C/C2=C\c1ccc(F)cc1 [Cpd 110, (7Z)-1-(2,4-dichloro-phenyl)-7-(4-fluoro-benzylidene)-5,5-dioxo-4,5,6,7-tetrahydro-1H-5λ^6-thiopyrano[4,3-c]pyrazole-3-carboxylic acid [4-(2-hydroxy-ethyl)-piperazin-1-yl]-amide] | 7% | 13% |  | 
C[C@@H](NC(=O)c1nn(-c2ccc(Cl)cc2Cl)c2c1CS(=O)(=O)C/C2=C\c1ccc(F)cc1)c1ccccn1 [Cpd 124, (7Z)-1-(2,4-dichloro-phenyl)-7-(4-fluoro-benzylidene)-5,5-dioxo-4,5,6,7-tetrahydro-1H-5λ^6-thiopyrano[4,3-c]pyrazole-3-carboxylic acid [(1R)-1-(pyridin-2-yl)-ethyl]-amide] | 12% |  | 5 nM | 
O=C(NN1CCCCC1)c1nn(-c2ccc(Cl)cc2Cl)c2c1CSC/C2=C\c1ccc(Br)cc1 [Cpd 130, (7Z)-(4-Bromo-benzylidene)-1-(2,4-dichloro-phenyl)-1,4,6,7-tetrahydro-thiopyrano[4,3-c]pyrazole-3-carboxylic acid piperidin-1-ylamide] | 34% |  | 21 nM | 
C[C@@H](NC(=O)c1nn(-c2ccc(Cl)cc2)c2c1CS(=O)(=O)C/C2=C\c1ccc(F)cc1)c1ccccc1 [Cpd 95, (7Z)-1-(4-chloro-phenyl)-7-(4-fluoro-benzylidene)-5,5-dioxo-4,5,6,7-tetrahydro-1H-5λ^6-thiopyrano[4,3-c]pyrazole-3-carboxylic acid [(1R)-1-phenyl-ethyl]-amide] |  |  | 9 nM | inhibition at 0.2 µM (human CB-2 receptor): 15%
C[C@H](NC(=O)c1c2c(nn1-c1ccc(Cl)cc1Cl)/C(=C/c1ccc(F)cc1)CSC2)c1ccccc1 [Cpd 91, (7Z)-2-(2,4-dichloro-phenyl)-7-(4-fluoro-benzylidene)-2,4,6,7-tetrahydro-thiopyrano[4,3-c]pyrazole-3-carboxylic acid [(1S)-1-phenyl-ethyl]-amide] | 14% | 38% |  | 
C[C@@H](NC(=O)c1nn(-c2ccc(Cl)cc2Cl)c2c1CSC/C2=C\c1ccc(F)cc1)c1ccccc1 [Cpd 63, (7Z)-1-(2,4-dichloro-phenyl)-7-(4-fluoro-benzylidene)-1,4,6,7-tetrahydro-thiopyrano[4,3-c]pyrazole-3-carboxylic acid [(1R)-1-phenyl-ethyl]-amide] | 6% |  | 9 nM | 
COC[C@@H]1CCCN1NC(=O)c1nn(-c2ccc(Cl)cc2Cl)c2c1CS(=O)(=O)C/C2=C\c1ccc(F)cc1 [Cpd 125, (7Z)-1-(2,4-dichloro-phenyl)-7-(4-fluoro-benzylidene)-5,5-dioxo-4,5,6,7-tetrahydro-1H-5λ^6-thiopyrano[4,3-c]pyrazole-3-carboxylic acid [(2S)-2-(methoxymethyl)-pyrrolidin-1-yl]-amide] | 8% |  | 58 nM | 
C[C@@H](NS(=O)(=O)/C=C/c1c2c(nn1Cc1ccccc1)CCS(=O)(=O)C2)C1CCCCC1 [Cpd 16, (E)-2-(2-benzyl-5,5-dioxo-4,5,6,7-tetrahydro-2H-5λ^6-thiopyrano[4,3-c]pyrazol-3-yl)-ethenesulfonic acid [(1R)-1-cyclohexyl-ethyl]-amide] |  |  |  | inhibition at 1 µM (human CB-2 receptor): 0%; inhibition at 1 µM (human CB1 receptor; [2]): 0%
CN1CCN(NC(=O)c2nn(-c3ccc(Cl)cc3Cl)c3c2CS(=O)(=O)C/C3=C\c2ccc(F)cc2)CC1 [Cpd 109, (7Z)-1-(2,4-dichloro-phenyl)-7-(4-fluoro-benzylidene)-5,5-dioxo-4,5,6,7-tetrahydro-1H-5λ^6-thiopyrano[4,3-c]pyrazole-3-carboxylic acid (4-methyl-piperazin-1-yl)-amide] | 6% | 4% |  | 
O=C(NN1CCCCCC1)c1nn(-c2ccc(Cl)cc2Cl)c2c1CS(=O)(=O)C/C2=C\c1ccc(Cl)o1 [Cpd 120, (7Z)-7-(5-chloro-furan-2-ylmethylene)-1-(2,4-dichloro-phenyl)-5,5-dioxo-4,5,6,7-tetrahydro-1H-5λ^6-thiopyrano[4,3-c]pyrazole-3-carboxylic acid azepan-1-ylamide] | 12% |  | 33 nM | 
O=C(NN1CC2CCCC2C1)c1nn(-c2ccc(Cl)cc2Cl)c2c1CS(=O)(=O)C/C2=C\c1ccc(F)cc1 (stereo not drawn) [Cpd 104, (7Z)-1-(2,4-dichloro-phenyl)-7-(4-fluoro-benzylidene)-5,5-dioxo-4,5,6,7-tetrahydro-1H-5λ^6-thiopyrano[4,3-c]pyrazole-3-carboxylic acid (hexahydro-cyclopenta[c]pyrrol-2-yl)-amide] | 10% | 76% |  | 
CC(NS(=O)(=O)/C=C/c1c2c(nn1Cc1ccccc1)CC[S+]([O-])C2)c1ccccc1 (stereo not drawn) [Cpd 22, (E)-2-(2-benzyl-5-oxo-4,5,6,7-tetrahydro-2H-5λ^4-thiopyrano[4,3-c]pyrazol-3-yl)-ethenesulfonic acid (1-phenyl-ethyl)-amide] |  |  |  | inhibition at 1 µM (human CB-2 receptor): 0%; inhibition at 10 µM (human CB-2 receptor; test concentration 10 μM (superscript c)): 2%; inhibition at 1 µM (human CB1 receptor; [2]): 11%; inhibition at 10 µM (human CB1 receptor; test concentration 10 μM (superscript c), read-out: CB1 binding percent inhibition): 0%
O=C(NN1CCCCC1)c1c2c(nn1-c1ccc(Cl)cc1Cl)/C(=C/c1ccc(F)cc1)CSC2 [Cpd 88, (7Z)-2-(2,4-dichloro-phenyl)-7-(4-fluoro-benzylidene)-2,4,6,7-tetrahydro-thiopyrano[4,3-c]pyrazole-3-carboxylic acid piperidin-1-ylamide] | 9% | 46% |  | 
CCOC(=O)[C@@H]1C2CCC(C2)[C@@H]1NC(=O)c1nn(-c2ccc(F)cc2F)c2c1CS(=O)(=O)C[C@H]2Cc1cccc(F)c1 (stereo partly drawn) [Cpd 50, (2R,3S)-3-{[1-(2,4-difluoro-phenyl)-(7S)-(3-fluoro-benzyl)-5,5-dioxo-4,5,6,7-tetrahydro-1H-5λ^6-thiopyrano[4,3-c]pyrazole-3-carbonyl]-amino}-bicyclo[2.2.1]heptane-2-carboxylic acid ethyl ester] | 24% | 50% |  | 
C[C@@H](NS(=O)(=O)/C=C/c1c2c(nn1Cc1ccccc1)CCSC2)c1ccccc1 [Cpd 2, (E)-2-(2-benzyl-2,4,6,7-tetrahydro-thiopyrano[4,3-c]pyrazol-3-yl)-ethenesulfonic acid [(1R)-1-phenyl-ethyl]-amide] |  |  |  | inhibition at 1 µM (human CB-2 receptor): 0%; inhibition at 1 µM (human CB1 receptor; [2]): 13%
O=S(=O)(/C=C/c1nn(-c2ccc(F)cc2F)c2c1CSCC2Cc1cccc(F)c1)NN1CCOCC1 (stereo not drawn) [Cpd 41, (E)-2-[1-(2,4-difluoro-phenyl)-7-(3-fluoro-benzyl)-1,4,6,7-tetrahydro-thiopyrano[4,3-c]pyrazol-3-yl]-ethenesulfonic acid morpholin-4-ylamide] | 8% | 9% |  | 
C[C@H](NS(=O)(=O)/C=C/c1c2c(nn1Cc1ccccc1)CCSC2)c1ccccc1 [Cpd 5, (E)-2-(2-benzyl-2,4,6,7-tetrahydro-thiopyrano[4,3-c]pyrazol-3-yl)-ethenesulfonic acid [(1S)-1-phenyl-ethyl]-amide] |  |  |  | inhibition at 1 µM (human CB-2 receptor): 9%; inhibition at 1 µM (human CB1 receptor; [2]): 9%
